Test results published in PMC4167698, “Fatty Acid Esters of Phloridzin Induce Apoptosis of Human Liver Cancer Cells through Altered Gene Expression” (PLoS ONE, 2014).

Experiments:
human DNA topo IIα = biological target: T1, human DNA topo IIα (Homo sapiens, UniProt P11388); assay: Topoisomerase IIα catalytic activity (pHOT1 DNA relaxation); assay type: biochemical; settings: 100 µM, 4 units enzyme, 37°C 30 min
T1 construct: purchased TopoGEN, Inc., Columbus, OH, USA
Experimental: The topo IIα catalytic activity was monitored via electrophoresis using topoisomerase II drug screening kit (TopoGEN, Inc., Columbus, OH, USA). Briefly, 20 µL of reaction mixtures contained 0.5 M Tris-HCl, pH 8.0, 1.5 M NaCl, 100 mM MgCl2, 20 mM ATP, 300 µg BSA/mL and 5 mM dithiothreitol. Supercoiled DNA (pHOT1 DNA), supercoiled provided in the kit was determined to be ideal for this assay because it is small and easy to handle and has a large number of topo IIα recognition elements. […] The reaction was terminated by adding 2 µL of 10% sodium dodecyl sulfate (SDS) followed by digestion with 2 µL of proteinase K (50 µg/mL) at 37°C for 15 min to degrade enzyme. After adding 2 µL of loading buffer (0.25% bromophenol blue and 50% glycerol) was added to the mixture, samples were loaded onto 1% agarose gel. Electrophoresis was conducted at 66 V (2 V/cm) for 5 h in TBE buffer using Biorad Electrophoretic Gel System (Bio-Rad, Hercules, CA, USA). Supercoiled DNA (pHOT1 DNA) and relaxed DNA were included in the electrophoresis run as markers for DNA topology. Gels were then stained in 0.5 µg/mL gel red in TBE for 30 min and destained for 15 min in distilled water prior to digital image acquisition using Gel Doc 100 system (Bio-Rad, Hercules, CA, USA).
One unit of topoisomerase II activity was defined as the minimum amount of enzyme required to achieve complete relaxation of […] superhelical pHOT1 DNA in 30 min at 37°C. […] The percent of inhibition was calculated by the following formula: [drawing 1] Where Scontrol is the percent of supercoiled DNA in the control lane (without enzyme and test compounds), S0 is the percent of supercoiled DNA in the lane without test compounds and S is the percent of supercoiled DNA in the lane with test compounds and enzyme.

THP-1 cells = assay: MTS cell proliferation assay, THP-1; assay type: cell-based, human; settings: Homo sapiens, MTS
Experimental: (§1) Cell viability was determined by using the MTS assay. In brief, HepG2 cells (5×10^3 cells/100 µL/well), MDA-MB-231 (5×10^3 cells/100 µL/well), THP-1 (25×10^3/100 µL/well), normal human and rat hepatocytes (1×10^4 cells/100 µL/well) were plated in triplicate, in a 96 well sterile flat bottom tissue culture plates. […] Thereby, cells were exposed to various concentrations (0.1, 1, 10, 25, 50, 75, 100 µM) of each treatment. Controls consist of cells with media containing DMSO (<0.5%), test blank wells contained the test compound in media with no cells and blank wells contained media with no cells. After additional 3, 6, 12, 18 or 24 h, 20 µL of the MTS reagent in combination with the electron coupling agent, phenazine methosulfate were added to the wells and cells were incubated in a humidified incubator for 3 h. Absorbance at 490 nm (OD490) was measured by using a Flurostar Optima microplate reader (BMG Labtech, Cary, NC, USA) to obtain the number of viable cells relative to the control population. Percentage of viability of the test compound treated cells are expressed as percentage compared to control (<0.5% DMSO). […] The selective index (SI) of the fatty acid esters of phloridzin is defined as the ratio of cytotoxicity (EC50 values) on normal HP-F cells to solid cancer HepG2, MDA-MB-231 cells (SI = EC50 on HP-F cells/EC50 on solid cancer cells). Samples with SI values greater than three were considered to have high selectivity towards cancer cells.

HepG2 cells [1] = assay: Annexin V/7-AAD apoptosis/necrosis fluorescence microscopy; assay type: cell-based, human; settings: HepG2, 100 µM, 24 h
Experimental: HepG2 cells were seeded into Nunc Lab-Tek two chamber slide (Sigma-Aldrich Canada) at a density of 1×10^6 cells/chamber. […] The slides were washed with diluted phosphate buffered saline. After removing the chamber, each slide was added with 50 µL of Dual Detection Reagent containing apoptosis detection reagent (Annexin V-EnzoGold) and necrosis detection reagent (7-AAD) in 1X binding buffer. The samples were incubated at room temperature for 15 min in the dark. After staining, the cells were washed with binding buffer and covered with a glass coverslip. The stained cells were observed under a fluorescence Zeiss Axiovert 200 m inverted microscope (Carl Zeiss, Toronto, ON, Canada) at magnification of ×40 with a filter set for Annexin V-EnzoGold (Ex/Em: 550/570 nm) and 7-AAD (Ex/Em: 546/647 nm).

MDA-MB-231 cells = assay: MTS cell proliferation assay, MDA-MB-231; assay type: cell-based, human; settings: Homo sapiens, MTS
Experimental: as §1

HepG2 cells [2] = assay: MTS cell proliferation assay, HepG2; assay type: cell-based, human; settings: Homo sapiens, MTS
Experimental: as §1

[3] = test system: caspase 3 activity of HepG2 cells; assay: Caspase-3 colorimetric activity assay; assay type: cell-based, human; settings: HepG2, 100 µM, 24 h, compared to DMSO control
Experimental: The activity of caspase 3 enzyme was measured using caspase 3 colorimetric assay kit purchased from Sigma-Aldrich. […] Cells were lysed and the protein content of cell lysate was quantified by the BCA protein assay (Thermo Fisher Scientific Inc., Ottawa, ON, Canada). Caspase-3 activity was measured in the 200 µg of cell lysate using the caspase-specific peptide substrate, DEVD (Asp-Glu-Val-Asp), conjugated to reporter p-nitroanaline (ρ-NA) molecules.

T1 sequence (P11388 whole entry): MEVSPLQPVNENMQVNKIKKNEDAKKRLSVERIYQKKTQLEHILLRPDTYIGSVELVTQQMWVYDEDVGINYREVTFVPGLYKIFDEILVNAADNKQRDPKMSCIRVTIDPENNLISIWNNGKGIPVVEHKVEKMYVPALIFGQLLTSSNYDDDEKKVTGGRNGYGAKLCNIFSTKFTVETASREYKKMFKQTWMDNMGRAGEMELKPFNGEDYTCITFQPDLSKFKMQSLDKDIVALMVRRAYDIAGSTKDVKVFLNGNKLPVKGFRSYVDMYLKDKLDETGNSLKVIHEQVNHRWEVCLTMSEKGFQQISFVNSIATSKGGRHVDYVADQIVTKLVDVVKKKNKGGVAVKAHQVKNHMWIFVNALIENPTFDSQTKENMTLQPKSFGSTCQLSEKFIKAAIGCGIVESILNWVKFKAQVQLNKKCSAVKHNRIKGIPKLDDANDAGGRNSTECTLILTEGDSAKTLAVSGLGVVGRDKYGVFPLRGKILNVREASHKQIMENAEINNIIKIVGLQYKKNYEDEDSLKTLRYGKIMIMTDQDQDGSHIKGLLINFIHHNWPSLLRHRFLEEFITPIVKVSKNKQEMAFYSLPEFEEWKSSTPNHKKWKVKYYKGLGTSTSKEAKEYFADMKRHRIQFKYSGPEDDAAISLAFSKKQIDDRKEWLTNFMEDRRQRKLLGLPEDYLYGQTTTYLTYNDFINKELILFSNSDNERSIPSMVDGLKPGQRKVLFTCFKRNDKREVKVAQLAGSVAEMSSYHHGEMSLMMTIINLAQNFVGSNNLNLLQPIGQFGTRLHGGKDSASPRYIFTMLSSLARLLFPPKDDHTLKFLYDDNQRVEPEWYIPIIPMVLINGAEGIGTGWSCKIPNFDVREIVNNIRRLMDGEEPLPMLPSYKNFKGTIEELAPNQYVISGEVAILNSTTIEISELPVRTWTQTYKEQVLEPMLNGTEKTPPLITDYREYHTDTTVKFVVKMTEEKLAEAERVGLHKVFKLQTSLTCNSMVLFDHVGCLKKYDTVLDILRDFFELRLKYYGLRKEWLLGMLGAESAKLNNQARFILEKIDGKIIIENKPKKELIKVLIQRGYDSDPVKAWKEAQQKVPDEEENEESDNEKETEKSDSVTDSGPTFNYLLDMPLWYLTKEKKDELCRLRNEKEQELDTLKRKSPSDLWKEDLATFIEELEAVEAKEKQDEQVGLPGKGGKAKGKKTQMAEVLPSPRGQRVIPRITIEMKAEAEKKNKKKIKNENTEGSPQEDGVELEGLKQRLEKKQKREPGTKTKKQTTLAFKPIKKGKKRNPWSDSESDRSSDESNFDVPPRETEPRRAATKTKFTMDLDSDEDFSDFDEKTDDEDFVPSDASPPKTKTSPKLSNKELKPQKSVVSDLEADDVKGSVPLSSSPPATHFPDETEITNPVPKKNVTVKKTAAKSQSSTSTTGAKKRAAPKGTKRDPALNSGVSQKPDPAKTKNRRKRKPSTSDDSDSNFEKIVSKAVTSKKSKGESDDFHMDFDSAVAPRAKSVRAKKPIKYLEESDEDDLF

For `O=C(CCc1ccc(O)cc1)c1c(O)cc(O)cc1O[C@@H]1O[C@H](CO)[C@@H](O)[C@H](O)[C@H]1O` [Phloridzin, phloretin 2′-O-glucoside], the “catalytic activity of human DNA topo IIα (pHOT DNA relaxation)” value (human DNA topo IIα) was “inhibited catalytic activity”, the EC50 (THP-1 cells; THP-1, 3 h) was greater than 100 µM and the EC50 (THP-1 cells; THP-1, 6 h) was greater than 100 µM. For the same compound, the EC50 (THP-1 cells; THP-1, 12 h) was greater than 100 µM, the EC50 (THP-1 cells; THP-1, 18 h) was greater than 100 µM and the EC50 (THP-1 cells; THP-1, 24 h) was greater than 100 µM. For the same compound, the “apoptosis/necrosis by Annexin V/7-AAD staining” value (HepG2 cells [1]) was “less apoptotic death of cells”, the EC50 (MDA-MB-231 cells; MDA-MB-231, 3 h) was greater than 100 µM and the EC50 (MDA-MB-231 cells; MDA-MB-231, 6 h) was greater than 100 µM. The EC50 (MDA-MB-231 cells; MDA-MB-231, 12 h) was greater than 100 µM, the EC50 (MDA-MB-231 cells; MDA-MB-231, 18 h) was greater than 100 µM and the EC50 (MDA-MB-231 cells; MDA-MB-231, 24 h) was greater than 100 µM. It also gave an EC50 (HepG2 cells [2]; HepG2, 3 h) greater than 100 µM, an EC50 (HepG2 cells [2]; HepG2, 6 h) greater than 100 µM and an EC50 (HepG2 cells [2]; HepG2, 12 h) greater than 100 µM. The EC50 (HepG2 cells [2]; HepG2, 18 h) was greater than 100 µM, the EC50 (HepG2 cells [2]; HepG2, 24 h) was greater than 100 µM and the “caspase 3 activity” value [3] was “enhanced caspase 3 activity but significantly (P<0.001) lower than fatty acid esters of phloridzin or the drug”.
With `O=C(CCc1ccc(O)cc1)c1c(O)cc(O)cc1O` [Phloretin] the “catalytic activity of human DNA topo IIα (pHOT DNA relaxation)” value (human DNA topo IIα) was “inhibited catalytic activity”, the EC50 (THP-1 cells; THP-1, 3 h) was 73.5 ± 5.2 µM and the EC50 (THP-1 cells; THP-1, 6 h) was 64.1 ± 5.4 µM. It also gave an EC50 (THP-1 cells; THP-1, 12 h) of 60.1 ± 4.2 µM, an EC50 (THP-1 cells; THP-1, 18 h) of 56.9 ± 3 µM and an EC50 (THP-1 cells; THP-1, 24 h) of 39.6 ± 1.7 µM. The “apoptosis/necrosis by Annexin V/7-AAD staining” value (HepG2 cells [1]) was “less apoptotic death of cells”, the EC50 (MDA-MB-231 cells; MDA-MB-231, 3 h) was greater than 100 µM and the EC50 (MDA-MB-231 cells; MDA-MB-231, 6 h) was greater than 100 µM. The EC50 (MDA-MB-231 cells; MDA-MB-231, 12 h) was greater than 100 µM, the EC50 (MDA-MB-231 cells; MDA-MB-231, 18 h) was greater than 100 µM and the EC50 (MDA-MB-231 cells; MDA-MB-231, 24 h) was greater than 100 µM. It also gave an EC50 (HepG2 cells [2]; HepG2, 3 h) greater than 100 µM, an EC50 (HepG2 cells [2]; HepG2, 6 h) greater than 100 µM and an EC50 (HepG2 cells [2]; HepG2, 12 h) greater than 100 µM. For the same compound, the EC50 (HepG2 cells [2]; HepG2, 18 h) was greater than 100 µM, the EC50 (HepG2 cells [2]; HepG2, 24 h) was 97.2 µM and the “caspase 3 activity” value [3] was “enhanced caspase 3 activity but significantly (P<0.001) lower than fatty acid esters of phloridzin or the drug”.
